Experimental data: article PMC5955599, “The HTLV-1 gp21 fusion peptide inhibits antigen specific T-cell activation in-vitro and in mice” (PLoS Pathogens, 2018)

Legend:
[1] = system: human peripheral T lymphocytes; assay: Cytokine secretion from primary human peripheral T-cells (ELISA); assay type: cell-based; conditions: peptide at 10μM, CD3 and CD28 antibodies, media 48 hours following activation, n = 12
Experimental: Fig 4 Primary human T-cell activation is inhibited upon HTLV FP treatment. Human peripheral T lymphocytes were isolated from whole blood and activated using CD3 and CD28 antibodies, in the presence of HTLV FP or HTLV Scr at 10μM. Media was collected 48 hours following activation and secretion of IL2, IFN-γ and IL10 was measured by ELISA assay. […] One-way ANOVA was used for statistical analysis. *P<0.05; ***P<0.001; ns, not significant.
Human peripheral T lymphocytes were isolated from whole blood of healthy adult donors by dextran sedimentation and Ficoll (Sigma) gradient separation followed by depletion of B cells using nylon wool column (Unisorb), to which B cells were adsorbed. Cells were incubated in a complete RPMI growth medium (500 ml RPMI Ca/Mg + heat inactivated FCS (10% final) + 5 ml 200 mM L-Glu (2 mM final) +5 ml […] Na pyruvate (1 mM final) + 5 ml Pen Strep antibiotics) for more than 2 h, and then non-adherent cells were harvested and transferred to a new plate, resulting in ~90% CD3+ T lymphocytes. Cells were then used for in vitro assay, in which […] were plated per well in a 96-well plate and activated using CD3 and CD28 antibodies.
Human peripheral T lymphocytes were isolated from whole blood of healthy donors and were incubated in a complete RPMI growth medium (500 ml RPMI Ca/Mg + heat inactivated FCS (10% final) + 5 ml 200 mM L-Glu (2 mM final) +5 ml […] Na pyruvate (1 mM final) + 5 ml Pen Strep antibiotics). Cells were activated using CD3 and CD28 antibodies, in the presence of relevant peptides at 10μM. Media was collected 48 hours following activation and secretion of IL2 and IFN-γ was determined according to standard protocols from R&D systems.

C57BL/6 female mice = assay: MOG35-55-induced experimental autoimmune encephalomyelitis (EAE); assay type: in vivo, mouse
Experimental: (A-B) MOG35-55–antigen specific T-cells were activated by irradiated MOG35-55 presenting APCs, in the presence of HTLV FP or HTLV Scr at 10μM. (A) The proliferative responses were assessed by H^3-thymidine incorporation assay, and normalized to the proliferation of non-activated T-cells. The data is presented as mean inhibition of proliferation. n = 12. (B) IFN-γ was measured by ELISA assay. n = 12. (C-D) EAE was induced in C57BL/6 female mice that were treated with a single dose of HTLV FP, HTLV Scr or vehicle. […] (C) Direct clinical measurement of EAE phenotype in a 5-point scale with increased disease symptoms correlating with higher score value. The data is presented as mean EAE clinical score. (D) Mice were weighed the day before EAE induction, and the change (as a percentage) in weight was recorded. The data is presented as mean change from the initial weight. One-way ANOVA was used for statistical analysis. ^a HTLV FP ≠ Vehicle; ^b HTLV FP ≠ Vehicle & HTLV Scr; ^c HTLV FP ≠ HTLV Scr. ^a,b,cP<0.05. (E) Spleenocytes were harvested at 26 DPI and stimulated using MOG35-55. The proliferative responses were assessed by H^3-thymidine incorporation assay and normalized to the proliferation of non-activated T-cells. The data is presented as counts per minute (CPM). n = 7. (F-G) Spleenocytes were harvested at 26 DPI and stimulated using MOG35-55. Media was collected 48 hours following activation and secretion of IFN-γ and IL4 was measured by ELISA assay. […] One-way ANOVA was used for statistical analysis. *P<0.05;**P<0.01;***P<0.001; ns, not significant.
EAE was induced in 9-week-old wild type and homozygous C57BL/6 female mice (Harlan Laboratories Israel/ Weizmann Institute animal facilities) by injecting a peptide comprising residues 35–55 of mouse myelin oligodendrocyte glycoprotein (MOG35–55; PolyPeptide Laboratories, Strasbourg, France). Mice were injected subcutaneously above the lumbar spinal cord with 100 μl of emulsion containing 200 μg/mouse of the encephalitogenic peptide in complete Freund’s adjuvant (BD-Difco) enriched with 250 μg/mouse of heat-inactivated Mycobacterium tuberculosis (BD-Difco) at 0 days post-induction (DPI). The HTLV FP was dissolved in PBS and added to the emulsion (1mg/kg). Pertussis toxin (Enzo Life Sciences) at a dose of 300 ng per mouse was injected intraperitoneally immediately after the encephalitogenic injection, as well as at […]. EAE disease was scored using a five-point grading with 0 for no clinical disease; 1, tail weakness; 2, paraparesis (incomplete paralysis of one or two hindlimbs); 3, paraplegia (complete paralysis of one or two hindlimbs); 4, paraplegia with forelimb weakness or paralysis; 5, moribund or dead animals. The mice were examined daily.
EAE was induced in C57BL/6 female mice that were either treated with a single dose of HTLV FP or vehicle. […] (A) Direct clinical measurement of EAE phenotype in a 5-point scale with increased disease symptoms correlating with higher score value. The data is presented as mean EAE clinical score. (B) Mice were weighed the day before EAE induction, and the change (as a percentage) in weight was recorded. The data is presented as mean change from the initial weight. Student’s t-test was used for statistical analysis. *P<0.05; **P<0.01;***P<0.001. (TIF) Click here for additional data file.

[2] = system: MOG35-55–antigen specific T-cells; assay: Cytokine secretion from activated antigen-specific T-cells (ELISA); assay type: cell-based, mouse (C57Bl/6J); conditions: peptide at 10μM, APC-activated T-cells, media 24 hours following activation, n = 12
Experimental: Fig 2 Modulation of Th1/Th2 gene expression and cytokine secretion from activated T-cells by the HTLV FP. MOG35-55–antigen specific T-cells were activated by irradiated MOG35-55 presenting APCs, in the presence of the HTLV FP at 10μM. (A) Total RNA was isolated 24 hours following activation and mRNA expression levels were determined by qRT-PCR. The values of each gene were normalized to Rpl13a as a housekeeping control. The HTLV FP reduces mRNA expression of Th1 specific genes (IFNG, LTA, and STAT4) and elevates mRNA expression of Th2 specific genes (IL4 and IL10). The data is presented as arbitrary units. n≥3. (B) Media was collected 24 hours following activation and secretion of cytokines was measured by ELISA assay. IFN-γ secretion is inhibited, IL4 secretion is elevated and TNFα is not affected by the HTLV FP. n = 12. One-way ANOVA was used for statistical analysis. *P<0.05; **P<0.01;***P<0.001.
Antigen-specific T-cells were plated onto round 96-well plates in medium containing RPMI-1640 supplemented with 2.5% fetal calf serum (FCS), 100 U/ml penicillin, 100 μg/ml streptomycin, 50μM β-mercaptoethanol, and 2mM L-glutamine. […] In addition, the relevant peptide was added. Each treatment was made with quadruplicate. Analysis of IFN-γ, IL-4 and TNFα secretion was performed by ELISA 24 hours after cell activation according to standard protocols from R&D systems.

[3] = system: MOG35-55–antigen specific T-cells; assay: In-vitro T-cell proliferative response (H3-thymidine incorporation); assay type: cell-based, mouse (C57Bl/6J); conditions: peptide at 10μM, irradiated MOG35-55 presenting APCs, mean inhibition of proliferation, n = 12

## ASKAASASPVSAGVTGIGVLMLGVVAMGWASLG [HTLV Scr, scrambled HTLV FP peptide, same amino acid composition and length as the HTLV FP]
[1]
  IFN-γ secretion, human T-cells: had no effect on T-cell activation
  IL2 secretion, human T-cells: had no effect on T-cell activation
  IL10 secretion, human T-cells: had no effect on T-cell activation
C57BL/6 female mice; additional experiment, S5 and S6 Movies
  clinical symptoms of a cage of treated mice at DPI 17: exhibiting clinical EAE symptoms
C57BL/6 female mice; single dose 1mg/kg, HTLV FP, HTLV Scr or vehicle, period 11 to 16 DPI, 5-point scale
  EAE clinical signs, additional experiment: ascent between 11 to 16 DPI
[2]
  IFN-γ secretion: higher potency than the HTLV Scr
[3]
  inhibition of T-cell proliferation, activation by MOG35-55 presenting APCs: higher potency than the HTLV Scr
